Drawing on patent US7915291B2, “Hepatitis C virus inhibitors” (Bristol-Myers Squibb Company, priority 2002, dated 2011), this text covers EC50 and IC50 for 24 compounds.

The test system of experiment [1] is HCV replicon in Huh7 cells. Briefly: HCV replicon cell-based assay. More on the design: species or system HCV strain 1B. The note with it: Hepatitis C virus, Huh-7; HCV replicon, Huh7 cells; read-out: EC50 range.
For experiment [2], the target named is HCV NS3/4A protease complex, BMS strain (UniProt P27958, C1454S/C1711G, species not given/STRAIN_BMS). Briefly: Recombinant HCV NS3/4A protease complex FRET peptide assay (BMS strain). The experiment is classed as biochemical, HCV genotype 1a. The method in brief: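 Percent inhibition taken from the linear-range fluorescence slope relative to uninhibited control, read kinetically for about 15 min at 25° C. Enzyme (2-3 nM, BMS NS3/4A complex, lysine-tailed, Ni-NTA purified) met compound for 1 min before 2 μM FRET depsipeptide substrate started cleavage.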

Where [3] appears, read: NS3/4A BMS strain; read-out: IC50 range.

Molecules are shown by their SMILES. Read-outs that look alike come from different tables or passages of the source.

Consider `C=C[C@@H]1C[C@]1(NC(=O)[C@@H]1C[C@@H](Oc2nccc3cc(OC)ccc23)CN1C(=O)[C@H](CC(=O)OC)NC(=O)OC(C)(C)C)C(=O)NS(=O)(=O)C1CC1` [Compound 138], for which the half-maximal effective concentration (EC50) in experiment [1] was less than 100 nM. Moreover, in experiment [2] (setting [3]), the half-inhibitory concentration (IC50) was less than 100 nM.
For the compound `C=C[C@@H]1C[C@]1(NC(=O)[C@@H]1C[C@@H](Oc2cc(C(F)(F)F)nc3ccc(C)cc23)CN1C(=O)[C@@H](NC(=O)OC(C)(C)C)C(C)(C)C)C(=O)NS(=O)(=O)C1CC1` [Compound 410], in experiment [1], the EC50 was less than 100 nM. Besides, the IC50 in experiment [2] (setting [3]) was less than 100 nM.
`C=CC1C[C@]1(NC(=O)[C@@H]1C[C@@H](Oc2nc(Br)c(OC)c3ccccc23)CN1C(=O)[C@@H](NC(=O)OC(C)(C)C)C(C)(C)C)C(=O)NS(=O)(=O)C1CC1` (stereo partly drawn) [Compound 223]: the 50% effective concentration (EC50) in experiment [1] is less than 100 nM. In experiment [2] (setting [3]), the IC50 is less than 100 nM.
In the case of `C=C[C@@H]1CC1(NC(=O)[C@@H]1CC(Oc2nccc3cc(OC)ccc23)CN1C(=O)[C@@H](NC(=O)OC1CCCC1)C(C)(C)C)C(=O)NS(=O)(=O)C1CC1` (stereo partly drawn) [Compound 70], the concentration giving a half-maximal response (EC50) in experiment [1] is less than 100 nM. The IC50 in experiment [2] (setting [3]) is less than 100 nM.
For the compound `C=C[C@@H]1C[C@]1(NC(=O)[C@@H]1CC(Oc2nccc3cc(OC)ccc23)CN1C(=O)[C@@H](NC(=O)N(C)C(C)(C)C)C(C)(C)C)C(=O)NS(=O)(=O)C1CC1` (stereo partly drawn) [Compound 77], the EC50 in experiment [1] lay within 100 to 1000 nM. Further, in experiment [2] (setting [3]), the IC50 is less than 100 nM.
For `C=C[C@@H]1C[C@]1(NC(=O)[C@@H]1C[C@@H](Oc2nccc3ccccc23)CN1C(=O)[C@@H](NC(=O)CC(C)(C)C)C(C)(C)C)C(=O)NS(=O)(=O)C1CC1` [Compound 130], in experiment [1], the EC50 was in the range of 100 to 1000 nM. Moreover, the IC50 in experiment [2] (setting [3]) is less than 100 nM.
For the compound `C=C[C@@H]1C[C@]1(NC(=O)[C@@H]1CC(Oc2nccc3cc(OC)ccc23)CN1C(=O)C([C@@H](C)CC)N(C)C(=O)OC(C)(C)C)C(=O)NS(=O)(=O)C1CC1` (stereo partly drawn) [Compound 84], the EC50 in experiment [1] was in the range of 100 to 1000 nM. Further, the half-inhibitory concentration (IC50) in experiment [2] (setting [3]) is less than 100 nM.
For the compound `C=C[C@@H]1CC1(NC(=O)[C@@H]1CC(Oc2nccc3cc(OC)ccc23)CN1C(=O)[C@@H](NC(=O)CO[C@H]1C[C@@H](C)CC[C@@H]1C(C)C)C(C)(C)C)C(=O)NS(=O)(=O)C1CC1` (stereo partly drawn) [Compound 60], the EC50 in experiment [1] lay in the range of 1000 to 10000 nM. In addition, the IC50 in experiment [2] (setting [3]) was less than 100 nM.
Consider `C=C[C@@H]1C[C@]1(NC(=O)[C@@H]1C[C@@H](Oc2nccc3cc(OC)ccc23)CN1C(=O)[C@@H](NC(=O)OC(C)(C)C)C(C)C)C(=O)NS(=O)(=O)C1CC1` [Compound 12], for which the EC50 in experiment [1] was less than 100 nM. For the same compound, in experiment [2] (setting [3]), the IC50 is less than 100 nM.
Regarding `C=CC1C[C@]1(NC(=O)[C@@H]1C[C@@H](Oc2ccnc3cc(C(F)(F)F)ccc23)CN1C(=O)[C@@H](NC(=O)OC(C)(C)C)C(C)(C)C)C(=O)NS(=O)(=O)C1CC1` (stereo partly drawn) [Compound 185, BOCNH-P3(L-tert-BuGly)-P2[(4R)-(7-trifluoromethyl quinolin-4-oxo)-S-proline]-P1(1R,2S Vinyl Acca)-CONHSO2-Cyclopropane], the EC50 in experiment [1] is less than 100 nM. Also, the IC50 in experiment [2] (setting [3]) is less than 100 nM.
Turning to `C=CC1C[C@]1(NC(=O)[C@@H]1C[C@@H](Oc2nccc3c4c(ccc23)OCO4)CN1C(=O)[C@@H](NC(=O)OC(C)(C)C)C(C)(C)C)C(=O)NS(=O)(=O)C1CC1` (stereo partly drawn) [Compound 211, BOCNH-P3(L-t-BuGly)-P2-[(4R)-(1,3-Dioxa-7-aza-cyclopenta[α]naphthalen-6-ol)-S -proline]-P1(1R,2S VinylAcca)-CONHSO2Cyclopropane], the 50% effective concentration (EC50) in experiment [1] is less than 100 nM. Moreover, the IC50 in experiment [2] (setting [3]) is less than 100 nM.
In the case of `C=C[C@@H]1C[C@]1(NC(=O)[C@@H]1C[C@@H](Oc2nc(-c3ccccc3)cc3ccccc23)CN1C(=O)[C@@H](NC(=O)OC(C)(C)C)C(C)(C)C)C(=O)NS(=O)(=O)C1CC1` [Compound 25], in experiment [1], the concentration for a half-maximal effect (EC50) is less than 100 nM. Further, in experiment [2] (setting [3]), the IC50 is less than 100 nM.
Regarding `C=C[C@@H]1C[C@]1(NC(=O)[C@@H]1C[C@@H](Oc2nccc3cc(OC)ccc23)CN1C(=O)C(NC(=O)N[C@H](C(=O)OC)C(C)C)C(C)(C)C)C(=O)NS(=O)(=O)C1CC1` (stereo partly drawn) [Compound 141], the half-maximal effective concentration (EC50) in experiment [1] was less than 100 nM. Besides, the IC50 in experiment [2] (setting [3]) is less than 100 nM.
For the compound `C=C[C@@H]1C[C@]1(NC(=O)[C@@H]1CC(Oc2nccc3cc(OC)ccc23)CN1C(=O)[C@H](CCC)N(C)C(=O)OC(C)(C)C)C(=O)NS(=O)(=O)C1CC1` (stereo partly drawn) [Compound 88], in experiment [1], the EC50 was in the range of 10000 to 100000 nM. In experiment [2] (setting [3]), the IC50 was 1000 to 10000 nM.
For `C=CC1C[C@]1(NC(=O)[C@@H]1C[C@@H](Oc2nc(-c3ccc(N(CC)CC)cc3)cc3cc(OC)ccc23)CN1C(=O)[C@@H](NC(=O)OC(C)(C)C)C(C)(C)C)C(=O)NS(=O)(=O)C1CC1` (stereo partly drawn) [Compound 327], in that order: less than 100 nM and less than 100 nM.
For `C=C[C@@H]1C[C@]1(NC(=O)[C@@H]1C[C@@H](Oc2nccc3cc(O)ccc23)CN1C(=O)[C@@H](NC(=O)OC(C)(C)C)C(C)(C)C)C(=O)NS(=O)(=O)C1CC1` [Compound 280], in that order: less than 100 nM and less than 100 nM.
For `C=CC1C[C@]1(NC(=O)[C@@H]1C[C@@H](Oc2cc(C(F)(F)F)nc3c(C(F)(F)F)cccc23)CN1C(=O)[C@@H](NC(=O)OC(C)(C)C)C(C)(C)C)C(=O)NS(=O)(=O)C1CC1` (stereo partly drawn) [Compound 181, BOCNH-P3(L-tert-BuGly)-P2[(4R)-(2,8-bistrifluoromethyl quinolin-4-oxo)-S-proline]-P1(1R,2S Vinyl Acca)-CONHSO2-Cyclopropane], in that order: 100 to 1000 nM and less than 100 nM.
Turning to `C=C[C@@H]1C[C@]1(NC(=O)[C@@H]1C[C@@H](Oc2nc(-c3ccc(C#N)cc3)cc3ccccc23)CN1C(=O)[C@@H](NC(=O)OC(C)(C)C)C(C)(C)C)C(=O)NS(=O)(=O)C1CC1` [Compound 29], in experiment [1], the 50% effective concentration (EC50) was less than 100 nM. Further, the IC50 in experiment [2] (setting [3]) was less than 100 nM.
Consider `CC[C@@H]1C[C@]1(NC(=O)[C@@H]1C[C@@H](Oc2nccc3cc(OC)ccc23)CN1C(=O)[C@@H](NC(=O)OC(C)(C)C)C(C)(C)C)C(=O)NS(=O)(=O)C1CC1` [Compound 14], for which, in experiment [1], the concentration giving a half-maximal response (EC50) was less than 100 nM. Besides, in experiment [2] (setting [3]), the IC50 was less than 100 nM.
Consider `C=CC1C[C@]1(NC(=O)[C@@H]1C[C@@H](Nc2nccc3ccccc23)CN1C(=O)[C@@H](NC(=O)OC(C)(C)C)C(C)(C)C)C(=O)NS(=O)(=O)C1CC1` (stereo partly drawn) [Compound 357], for which the EC50 in experiment [1] lay within 100 to 1000 nM. Moreover, in experiment [2] (read-out: IC50 range; NS3/4A BMS strain), the IC50 is less than 100 nM.
Consider `C=C[C@@H]1C[C@]1(NC(=O)[C@@H]1C[C@@H](Oc2nccc3cc(OC)ccc23)CN1C(=O)[C@@H](NC(=O)OC(C)(C)C)[C@@H](C)OCc1ccccc1)C(=O)NS(=O)(=O)C1CC1` [Compound 110], for which the EC50 in experiment [1] was in the range of 100 to 1000 nM. Besides, in experiment [2] (setting [3]), the concentration for half-maximal inhibition (IC50) was less than 100 nM.
With `C=C[C@@H]1C[C@]1(NC(=O)[C@@H]1C[C@@H](Oc2nccc3cc(OC)ccc23)CN1C(=O)[C@@H](NC(=O)OC(C)(C)C(F)(F)F)[C@H](C)OC)C(=O)NS(=O)(=O)C1CC1` [Compound 106], the EC50 in experiment [1] was less than 100 nM. Further, in experiment [2] (setting [3]), the IC50 is less than 100 nM.
`CC[C@@H]1C[C@]1(NC(=O)[C@@H]1C[C@@H](Oc2nccc3c(C)cccc23)CN1C(=O)[C@@H](NC(=O)OC(C)(C)C)C(C)(C)C)C(=O)NS(=O)(=O)C1CC1` [Compound 293]: the EC50 in experiment [1] is 100 to 1000 nM. Besides, in experiment [2] (setting [3]), the IC50 was less than 100 nM.
For `C=C[C@@H]1C[C@]1(NC(=O)[C@@H]1C[C@@H](Oc2nccc3cc(OC)ccc23)CN1C(=O)[C@@H](NC(=O)N[C@@H](Cc1c[nH]cn1)C(=O)OC)C(C)(C)C)C(=O)NS(=O)(=O)C1CC1` [Compound 147], in that order: 1000 to 10000 nM and less than 100 nM.
